The results in this text go back to publication PMC9719519, “Non-classical ferroptosis inhibition by a small molecule targeting PHB2” (Nature Communications, 2022).

Test in all cases: biochemical
Set-up in all cases: Eurofins recombinant human kinase profiling, remaining kinase activity as % of control, 10 uM ATP
Conditions in all cases: ATP 10 uM; read-out: %Ctrl@10 μM

The target of one assay is T1, IRE1(h) (Homo sapiens, UniProt O75460).
T1 construct: gene ERN1
The procedure, abridged: (§1)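 Activity measured in a commercial panel of 401 recombinant human protein kinases run as a kinase profiling service.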

The next assay deals with STK32A(h) (Homo sapiens, UniProt Q8WU08). Put shortly: as §1
In another assay the target is FGFR2(N549H)(h) (Homo sapiens, UniProt P21802, N549H). Put shortly: as §1
For another assay, the target named is T2, ALK1(h) (Homo sapiens, UniProt P37023).
T2 construct: gene ACVRL1
Put shortly: as §1

For the next assay, the target named is NEK7(h) (Homo sapiens, UniProt Q8TDX7). Put shortly: as §1
The next assay addresses IRAK1(h) (Homo sapiens, UniProt P51617). The procedure, abridged: as §1
The target of the next assay is CSK(h) (Homo sapiens, UniProt P41240). The procedure, abridged: as §1
A further assay deals with T3, CK2α2(h) (Homo sapiens, UniProt P19784).
T3 construct: gene CSNK2A2
Put shortly: as §1

The target in a further assay is STK32B(h) (Homo sapiens, UniProt Q9NY57). Put shortly: as §1
The next assay concerns the target DYRK3(h) (Homo sapiens, UniProt O43781). Put shortly: as §1
A further assay has as its target T4, MSSK1(h) (Homo sapiens, UniProt Q9UPE1).
T4 construct: gene SRPK3
The procedure, abridged:
as §1

Another assay concerns the target T5, CaMKIIδ(h) (Homo sapiens, UniProt Q13557).
T5 construct: gene CAMK2D
Put shortly:
as §1

A further assay concerns the target T6, PKCβII(h) (Homo sapiens, UniProt P05771).
T6 construct: gene PRKCB; isoform beta II
The procedure, abridged: as §1

For another assay, the target named is T7, PKBγ(h) (Homo sapiens, UniProt Q9Y243).
T7 construct: gene AKT3
The procedure, abridged:
as §1

The target in another assay is NEK6(h) (Homo sapiens, UniProt Q9HC98). The procedure, abridged:
as §1

In a further assay the target is T8, Arg(h) (Homo sapiens, UniProt P42684).
T8 construct: gene ABL2
The procedure, abridged: as §1

The target in the next assay is T9, Rsk4(h) (Homo sapiens, UniProt Q9UK32).
T9 construct: gene RPS6KA6
Put shortly:
as §1

In the next assay the target is STK33(h) (Homo sapiens, UniProt Q9BYT3). The procedure, abridged: as §1
In a further assay the target is RIPK1(h) (Homo sapiens, UniProt Q13546). The procedure, abridged: as §1
The next assay concerns the target T10, Mnk2(h) (Homo sapiens, UniProt Q9HBH9).
T10 construct: gene MKNK2
Put shortly: as §1

The target of another assay is ALK(h) (Homo sapiens, UniProt Q9UM73). The procedure, abridged: as §1
The next assay addresses PRKG2(h) (Homo sapiens, UniProt Q13237). Put shortly:
as §1

The next assay has as its target T11, MLK2(h) (Homo sapiens, UniProt Q02779).
T11 construct: gene MAP3K10
Put shortly:
as §1

T3 sequence (P19784 whole entry): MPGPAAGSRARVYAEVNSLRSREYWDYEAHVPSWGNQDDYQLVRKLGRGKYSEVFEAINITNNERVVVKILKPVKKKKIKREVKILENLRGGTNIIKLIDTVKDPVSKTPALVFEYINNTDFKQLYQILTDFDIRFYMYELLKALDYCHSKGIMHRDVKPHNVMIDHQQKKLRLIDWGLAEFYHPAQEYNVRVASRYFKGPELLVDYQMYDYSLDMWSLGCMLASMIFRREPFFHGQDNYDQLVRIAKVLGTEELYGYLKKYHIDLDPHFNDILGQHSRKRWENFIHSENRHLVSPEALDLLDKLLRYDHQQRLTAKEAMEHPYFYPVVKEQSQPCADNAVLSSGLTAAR
Sequence of STK32A(h) (Q8WU08 whole entry): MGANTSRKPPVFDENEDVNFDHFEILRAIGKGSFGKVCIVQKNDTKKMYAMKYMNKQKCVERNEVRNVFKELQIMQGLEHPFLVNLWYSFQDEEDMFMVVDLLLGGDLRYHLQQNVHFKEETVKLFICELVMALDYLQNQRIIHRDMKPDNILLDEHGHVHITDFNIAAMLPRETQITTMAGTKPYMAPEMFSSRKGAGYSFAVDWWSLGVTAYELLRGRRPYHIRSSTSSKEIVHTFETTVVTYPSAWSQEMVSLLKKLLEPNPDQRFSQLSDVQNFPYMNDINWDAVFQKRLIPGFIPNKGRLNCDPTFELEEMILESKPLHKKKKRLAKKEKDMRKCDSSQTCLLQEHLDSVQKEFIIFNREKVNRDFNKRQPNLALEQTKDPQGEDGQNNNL
T6 sequence (P05771 whole entry, canonical isoform): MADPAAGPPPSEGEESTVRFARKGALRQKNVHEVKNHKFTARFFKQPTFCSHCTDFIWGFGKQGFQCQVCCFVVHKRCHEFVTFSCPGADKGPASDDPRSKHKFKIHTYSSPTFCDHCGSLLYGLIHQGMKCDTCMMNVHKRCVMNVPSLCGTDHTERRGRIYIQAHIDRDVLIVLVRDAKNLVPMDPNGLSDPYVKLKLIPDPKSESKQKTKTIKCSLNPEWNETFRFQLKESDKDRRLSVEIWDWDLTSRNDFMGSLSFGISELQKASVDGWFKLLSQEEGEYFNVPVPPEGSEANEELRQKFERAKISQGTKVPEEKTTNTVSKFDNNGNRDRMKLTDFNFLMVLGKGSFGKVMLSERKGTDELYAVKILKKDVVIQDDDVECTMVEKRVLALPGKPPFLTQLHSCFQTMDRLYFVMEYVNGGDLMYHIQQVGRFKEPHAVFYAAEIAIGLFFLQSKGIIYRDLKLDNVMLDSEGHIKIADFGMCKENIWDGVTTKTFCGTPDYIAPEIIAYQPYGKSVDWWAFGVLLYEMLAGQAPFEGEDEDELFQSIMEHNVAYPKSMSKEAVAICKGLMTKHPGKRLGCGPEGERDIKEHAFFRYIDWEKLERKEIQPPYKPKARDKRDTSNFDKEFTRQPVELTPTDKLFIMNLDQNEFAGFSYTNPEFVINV
T1 sequence (O75460 whole entry): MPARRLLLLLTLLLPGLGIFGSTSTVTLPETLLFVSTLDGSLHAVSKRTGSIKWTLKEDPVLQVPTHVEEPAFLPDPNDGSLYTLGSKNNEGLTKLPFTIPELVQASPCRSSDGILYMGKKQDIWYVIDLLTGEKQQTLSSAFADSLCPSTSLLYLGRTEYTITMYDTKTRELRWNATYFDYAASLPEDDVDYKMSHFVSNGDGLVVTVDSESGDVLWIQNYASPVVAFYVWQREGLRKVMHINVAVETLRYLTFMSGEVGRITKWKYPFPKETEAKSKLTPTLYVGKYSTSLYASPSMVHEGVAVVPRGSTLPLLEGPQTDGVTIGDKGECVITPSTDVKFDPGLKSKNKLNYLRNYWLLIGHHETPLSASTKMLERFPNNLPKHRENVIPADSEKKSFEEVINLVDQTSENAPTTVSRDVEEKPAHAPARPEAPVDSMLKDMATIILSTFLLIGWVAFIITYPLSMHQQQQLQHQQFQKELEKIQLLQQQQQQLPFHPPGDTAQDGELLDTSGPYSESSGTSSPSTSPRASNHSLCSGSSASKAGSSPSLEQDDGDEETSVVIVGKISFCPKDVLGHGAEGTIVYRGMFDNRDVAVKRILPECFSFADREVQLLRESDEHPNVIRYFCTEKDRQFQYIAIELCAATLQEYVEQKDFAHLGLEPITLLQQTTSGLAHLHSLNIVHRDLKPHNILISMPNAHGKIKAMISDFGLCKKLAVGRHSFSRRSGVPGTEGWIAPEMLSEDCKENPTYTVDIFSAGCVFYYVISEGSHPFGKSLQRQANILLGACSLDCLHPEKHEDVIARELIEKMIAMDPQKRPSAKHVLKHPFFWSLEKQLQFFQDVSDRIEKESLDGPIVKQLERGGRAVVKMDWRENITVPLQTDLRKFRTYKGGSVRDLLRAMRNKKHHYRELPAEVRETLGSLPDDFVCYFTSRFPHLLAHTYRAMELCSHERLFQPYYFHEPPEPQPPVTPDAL
Sequence of FGFR2(N549H)(h) (P21802 whole entry N549H): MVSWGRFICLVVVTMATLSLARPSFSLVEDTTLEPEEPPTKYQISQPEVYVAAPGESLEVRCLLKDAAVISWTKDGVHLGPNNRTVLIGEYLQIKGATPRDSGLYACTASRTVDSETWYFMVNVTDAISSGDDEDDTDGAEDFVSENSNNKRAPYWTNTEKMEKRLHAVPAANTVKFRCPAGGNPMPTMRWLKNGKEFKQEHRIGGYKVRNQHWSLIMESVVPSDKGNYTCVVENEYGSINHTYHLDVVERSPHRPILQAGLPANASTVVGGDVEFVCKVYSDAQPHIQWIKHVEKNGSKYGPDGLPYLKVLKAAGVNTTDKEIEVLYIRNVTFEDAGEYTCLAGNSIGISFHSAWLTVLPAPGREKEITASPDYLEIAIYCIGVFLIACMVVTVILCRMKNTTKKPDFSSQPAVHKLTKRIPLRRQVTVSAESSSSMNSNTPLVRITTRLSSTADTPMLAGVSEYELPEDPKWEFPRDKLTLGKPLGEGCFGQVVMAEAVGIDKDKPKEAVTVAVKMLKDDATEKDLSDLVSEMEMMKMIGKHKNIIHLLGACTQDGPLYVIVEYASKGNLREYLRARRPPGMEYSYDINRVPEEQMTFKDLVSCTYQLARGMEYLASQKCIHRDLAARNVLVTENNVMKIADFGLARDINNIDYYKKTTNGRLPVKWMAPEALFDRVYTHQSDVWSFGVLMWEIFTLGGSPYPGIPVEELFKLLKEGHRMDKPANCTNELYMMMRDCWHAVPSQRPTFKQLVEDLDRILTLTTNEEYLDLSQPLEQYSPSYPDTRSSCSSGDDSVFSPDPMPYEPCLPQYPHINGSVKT
Sequence of NEK6(h) (Q9HC98 whole entry): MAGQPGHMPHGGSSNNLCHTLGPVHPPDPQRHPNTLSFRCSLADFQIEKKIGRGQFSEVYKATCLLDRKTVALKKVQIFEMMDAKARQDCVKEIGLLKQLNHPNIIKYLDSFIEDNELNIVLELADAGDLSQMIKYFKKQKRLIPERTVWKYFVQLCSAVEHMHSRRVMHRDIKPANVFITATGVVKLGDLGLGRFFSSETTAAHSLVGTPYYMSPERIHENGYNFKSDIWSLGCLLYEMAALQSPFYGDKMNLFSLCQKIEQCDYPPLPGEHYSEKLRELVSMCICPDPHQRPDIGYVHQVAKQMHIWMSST
T8 sequence (P42684 whole entry): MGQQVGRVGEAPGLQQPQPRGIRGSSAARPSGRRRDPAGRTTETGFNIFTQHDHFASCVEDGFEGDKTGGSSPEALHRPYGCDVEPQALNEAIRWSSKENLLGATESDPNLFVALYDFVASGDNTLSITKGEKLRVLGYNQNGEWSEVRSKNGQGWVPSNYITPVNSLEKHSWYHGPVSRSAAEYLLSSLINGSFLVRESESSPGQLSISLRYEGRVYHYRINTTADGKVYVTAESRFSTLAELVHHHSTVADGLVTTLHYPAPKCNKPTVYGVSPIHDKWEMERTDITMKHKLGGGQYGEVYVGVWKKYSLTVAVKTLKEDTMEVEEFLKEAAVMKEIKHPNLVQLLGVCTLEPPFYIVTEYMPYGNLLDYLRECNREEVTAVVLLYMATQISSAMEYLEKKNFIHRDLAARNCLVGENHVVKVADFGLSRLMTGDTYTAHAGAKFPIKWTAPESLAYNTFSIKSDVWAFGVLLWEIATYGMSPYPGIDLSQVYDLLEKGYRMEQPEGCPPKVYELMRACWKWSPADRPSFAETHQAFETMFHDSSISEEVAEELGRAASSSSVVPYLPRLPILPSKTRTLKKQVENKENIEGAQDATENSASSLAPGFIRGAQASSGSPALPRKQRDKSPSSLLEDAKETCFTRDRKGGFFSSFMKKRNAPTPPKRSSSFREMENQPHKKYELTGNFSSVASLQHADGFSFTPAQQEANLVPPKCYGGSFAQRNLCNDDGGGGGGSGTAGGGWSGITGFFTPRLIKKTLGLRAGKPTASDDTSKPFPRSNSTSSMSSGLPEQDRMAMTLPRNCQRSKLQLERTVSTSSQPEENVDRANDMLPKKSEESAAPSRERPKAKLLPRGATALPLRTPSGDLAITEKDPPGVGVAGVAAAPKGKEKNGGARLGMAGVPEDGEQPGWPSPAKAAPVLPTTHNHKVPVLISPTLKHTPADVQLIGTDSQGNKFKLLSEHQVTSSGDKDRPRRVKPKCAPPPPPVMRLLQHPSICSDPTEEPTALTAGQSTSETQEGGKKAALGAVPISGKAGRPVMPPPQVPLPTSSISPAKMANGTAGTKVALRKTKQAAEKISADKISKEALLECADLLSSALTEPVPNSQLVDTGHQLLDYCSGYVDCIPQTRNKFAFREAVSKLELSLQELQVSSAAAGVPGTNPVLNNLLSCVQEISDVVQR
Sequence of NEK7(h) (Q8TDX7 whole entry): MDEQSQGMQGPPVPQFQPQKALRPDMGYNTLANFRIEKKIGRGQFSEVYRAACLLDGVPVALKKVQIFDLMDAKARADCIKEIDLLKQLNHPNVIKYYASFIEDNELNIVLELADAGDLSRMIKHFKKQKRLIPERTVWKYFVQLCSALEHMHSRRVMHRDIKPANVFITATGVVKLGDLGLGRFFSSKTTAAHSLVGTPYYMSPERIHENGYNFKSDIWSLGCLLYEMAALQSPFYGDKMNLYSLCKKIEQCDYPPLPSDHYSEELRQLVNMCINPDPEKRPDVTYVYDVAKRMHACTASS

Take `C1=C(c2nc(-c3cnn(C4CCNCC4)c3)cn3cc(-c4ccccc4)nc23)CCOC1` [YL-939]: the remaining activity at 10 µM on IRE1(h) was found to be 94%; on STK32A(h), 111%; at FGFR2(N549H)(h), 94%; at ALK1(h), 94%; at NEK7(h), 89%; at IRAK1(h), 118%. In addition, the remaining activity at 10 µM was 105% at CSK(h); 98% on CK2α2(h); 105% on STK32B(h); 77% on DYRK3(h); 87% on MSSK1(h); 68% on CaMKIIδ(h). In addition, the remaining activity at 10 µM stood at 95% on PKCβII(h); 97% at PKBγ(h); 97% on NEK6(h); 108% on Arg(h); 73% on Rsk4(h); 105% at STK33(h). Moreover, the remaining activity at 10 µM on RIPK1(h) stood at 106%; at Mnk2(h) it was 74%; at ALK(h) it was 106%; at PRKG2(h) it was 97%; at MLK2(h) it was 82%.
